# In PubChem BioAssay AID624491 (Broad Institute, 2012):
# Tested on: D54 ERlucT glycosylation luciferase reporter, luminescence, 24 h
# Test: N-linked glycosylation inhibitors, luciferase reporter, dose response, D54 ERlucT cells, luminescence, cherry-picks (AID 624491);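 also: signal gain reflects blocked N-linked glycosylation of a luciferase reporter; actives raise luciferase signal so AC26 marks activators of the reporter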
row,Structure (SMILES),AC26 [nM]
1,Cc1c(Cl)cccc1N=Cc1ccc([N+](=O)[O-])s1,1870
2,CN(C)S(=O)(=O)c1ccc(N2CCCC2)c(C(=O)Nc2ccccc2)c1,957
3,c1ccc(-c2cc(NCCN3CCCCC3)c3ccccc3n2)cc1,2910
4,COc1ccc(C2=Nn3c(nnc3-c3ccccc3F)SC2)cc1OC1CCOC1 (stereo not given),4730
5,Cc1ccc2nc(Cl)c(/C=C/C(=O)c3ccco3)cc2c1,7890
6,Cc1ccc2c(c1)cc(CN(C(=O)N1CCOCC1)C1CCCC1)c1nnnn12,4120
7,COc1ccc(CCn2c(O)c(C=NCc3ccc4c(c3)OCO4)c(=O)[nH]c2=O)cc1OC,3430
8,Cc1ccc(C(=O)NC(=C(Cl)Cl)S(=O)(=O)c2ccc(Cl)cc2)cc1,3660
9,O=C(Cn1ncc(Cl)c(Cl)c1=O)N1CCOCC1,1220
10,O=c1[nH]c(=O)c2nc3c4ccccc4c4ccccc4c3nc2[nH]1,392
11,CCN(CC)CCOc1c(Br)ccc2c1sc1nc3n(c(=O)c12)CCC3,3070
12,Oc1ccc(CCNc2c3ccccc3nc3ccccc23)cc1O,638
13,CC(=O)Nc1cccc(NC(=O)c2ccccc2OCc2ccccc2)c1,1350
14,CCCCNC(=O)c1cc(-c2ccc(F)cc2)on1,3450
15,Cc1[nH]c2ccccc2c1/C=N/NC(=O)c1cc(-c2ccncc2)nc2ccccc12,4040
16,COC(=O)/C=C1\C(=O)N(c2nc3ccccc3s2)C(=S)N1c1ccc(F)cc1,2300
17,CCn1c(SCC(=O)N/N=C/c2ccc(C)s2)nc2ccccc21,2200
18,Cc1ccc(C)c(NC(=S)NC(NC(=O)Cc2cccc3ccccc23)C(Cl)(Cl)Cl)c1 (stereo not given),1270
19,COc1cc2c(c(OC)c1OC)-c1ccc(OC)c(=O)cc1[C@@H](N(C)CC#CCO)CC2,380
20,O=C(N/N=C/c1cccc(C(F)(F)F)c1)C1CCN(c2ncc(C(F)(F)F)cc2Cl)CC1,5890
21,COc1ccc(C)cc1NC(=O)CCCNC(=O)Cn1cnc2sc(C)c(C)c2c1=O,7090
22,CC(/C=N/NC(=O)c1cc(-c2ccc(C)s2)[nH]n1)=C\c1ccccc1,650
23,Cc1cc(NC(=O)CN2C(=O)NC3(CCCCCC3)C2=O)ccc1Br,1570
24,Cc1ccc2nc(-c3ccccc3)cc(C(=O)N3CC(C)OC(C)C3)c2c1 (stereo not given),2450
25,COc1cc(OC)c(N2CC(C(=O)Nc3cc(Cl)ccc3N3CCOCC3)CC2=O)cc1Cl (stereo not given),3310
26,CS(=O)(=O)Nc1cccc(NC(=O)C2Cc3c(-c4ccccc4)ccnc3O2)c1 (stereo not given),2360
27,CCOc1ccc(NC(=O)C(=O)NCCN2CCN(S(=O)(=O)c3ccc(C)cc3)CC2)cc1,4890

row,Structure (SMILES),AC26 [nM]
1,COc1ccc(CCn2c(=N)c(C(=O)NCc3ccco3)cc3c(=O)n4ccccc4nc32)cc1OC,6410
2,COc1ccc(Nc2cc(C)nc3ccc(OC)cc23)cc1,1830
3,NC(=O)CC(NC(=O)Cc1ccc(Cl)cc1)c1ccc(NC2CCCC2)c([N+](=O)[O-])c1 (stereo not given),1840
4,Cc1ccc2nc(-c3ccc(SCC(=O)Nc4nnc(C)s4)nc3)[nH]c2c1,4860
5,COc1ccc(-n2c(=S)[nH]c3cc(C(=O)Nc4ccc(F)cc4)ccc3c2=O)c(OC)c1,4550
6,CCOC(=O)c1c(NC(=O)c2cc3n(n2)C(C(F)(F)F)CC(c2cccs2)N3)sc(C)c1C (stereo not given),5140
7,Cn1cnc([N+](=O)[O-])c1S(=O)(=O)c1cccc(Cl)c1,1200
8,CCCNc1nc2ccccc2n2c(C)nnc12,2980
9,COc1cc(OC)c(C2=NOC(C(=O)NCc3cccs3)C2)cc1Cl (stereo not given),5250
10,C=CCn1c(O)c(/C=C2/C=CC=N2)c(=O)[nH]c1=O,3080
11,COc1ccc(NC(=O)C2Cc3c(-c4cccc(NC(C)=O)c4)ccnc3O2)cc1 (stereo not given),1560
12,O=C1NC(=O)N(c2ccccc2)C(=O)/C1=C\C=C\c1ccccc1,679
13,COC(=O)CNC(c1ccccc1)c1cc(Br)ccc1NC(=O)CCN1CCOCC1 (stereo not given),4810
14,Cc1ccccc1NC(=O)Cn1nnc(C(=O)NCc2ccco2)c1N,1770
15,Nc1ccc(C(=O)Nc2ccccc2N)cc1,2880
16,Cc1ccc(-n2nc(C)c(NC(=O)CCl)c2C)cc1,2210
17,COC(=O)c1ccc2c(=O)n(Cc3ccco3)c(SCC(=O)Nc3cc(C)on3)nc2c1,2190
18,CCN(CC)CCNC(=O)c1cc2c(-c3ccc(Cl)cc3)nn(C)c2s1,3330
19,Cc1nn(-c2ccccc2)c2c1CC(=O)Nc1ccccc1-2,329
20,CCOc1cc(C(=O)Nc2ccc(N3CCOCC3)cc2)cc(Br)c1OC,2770
21,CC(=O)Nc1cccc(-c2ccnc3c2CC(C(=O)NCc2cccc(Cl)c2)O3)c1 (stereo not given),9220
22,O=C(COC(=O)Cn1cnc2ccccc21)Nc1cccc2c1C(=O)c1ccccc1C2=O,2840
23,c1ccc2c(c1)oc1c(-c3ccc4nccn4c3)cccc12,8270
24,O=C1C=C(c2cccs2)C[C@H](c2ccccc2)[C@H]1n1nnc([N+](=O)[O-])n1,260
25,c1ccc2sc(Sc3ncnc4sccc34)nc2c1,1480
26,CCN1C(=O)Nc2cccc3cccc1c23,3360
27,CCNc1ccc(Br)cc(C(=O)/C=C/c2ccc(Cl)cc2)c1=O,6710

row,Structure (SMILES),AC26 [nM]
1,COc1ccc([C@H]2CC(=O)C=C(c3c(OC)cccc3OC)C2)cc1,3260
2,CCN(CC)CCNc1cccc2sc3ccccc3c(=O)c12,4840
3,CCOc1nc(N=C(N)N)nc2c(C)cccc12,2480
4,COc1cc(OC)cc(C(=O)c2c(C)c(C#N)c3ccccn23)c1,1220
5,CCOc1cc(-c2cc(-c3ccccc3)nc(N)c2C#N)ccc1O,2480
6,CCOC(=O)c1cnc2c(C)cc(C)cc2c1NCCCN1CCOCC1,3470
7,Cc1cccc(C(=O)Oc2ccccc2/C=N/NC(=O)c2ccc(NC(=O)C(C)(C)C)cc2)c1,1550
8,NC(=O)CC(NC(=O)Cc1ccc(Br)cc1)c1ccc(NCC2CC2)c([N+](=O)[O-])c1 (stereo not given),6670
9,C=CCOc1ccc(/C=C2\SC(N3CCCCC3)=NC2=O)cc1,5420
10,Cc1cc(C)cc(NC2=NC3(CCCCC3)N=C(N)N2)c1,545
11,COc1cc2c(cc1OC)CN(c1ccc(C(F)(F)F)cn1)CC2,4710
12,Cc1nc([N+](=O)[O-])c(Br)n1Cc1ccc(Cl)c(Cl)c1,885
13,Cc1nnc2c(NC3CCCCC3)nc3ccccc3n12,2760
14,NC(=O)CC(NC(=O)Cc1ccc(Br)cc1)c1ccc(NC2CCC2)c([N+](=O)[O-])c1 (stereo not given),2760
15,O=c1cc(-c2ccccc2)nc2cc(-c3ccc(F)cc3)[nH]n12,4270
16,COC(=O)c1ccc(/C=C/C(=O)c2ccc(OC)c(OC)c2)cc1,4100
17,CCOC(=O)c1c(NC(C)=O)sc2c(OCCN(CC)CC)c(Br)ccc12,2690
18,COc1ccc(OC)c2nc3c(C(=O)NCCN(C)C)cccc3nc12,187
19,Cc1ccc(S(=O)(=O)c2cc3c(=O)n4ccccc4nc3n(CCc3ccccc3)c2=N)cc1,84.5
20,COc1cc(OC)cc(C(=O)N2CC(=O)Nc3ccccc32)c1,565
21,COc1cc(C2CC(=O)Nc3cc(C)c(C)cc32)cc(OC)c1OC (stereo not given),8880
22,Cc1ccc(C)c(Cn2nnc3c(=O)[nH]c(C4CCN(C(=O)c5ccco5)CC4)nc32)c1,1110
23,O=C(/C=C/c1ccc(-c2ccccc2[N+](=O)[O-])o1)c1ccc(Br)cc1,4780
24,Cc1ccc(C(=O)N/C(=C\c2ccco2)C(=O)NCCc2c[nH]c3ccccc23)cc1,2310
25,O=C(Nc1cccc(F)c1)c1cc(S(=O)(=O)N2CCOCC2)ccc1N1CCCC1,947
26,O=C(N/N=C/c1ccc(F)cc1)c1sccc1OCc1ccc(F)cc1,1630
